The results in this text go back to PubChem BioAssay AID624167 (Sanford-Burnham Center for Chemical Genomics, 2012).

The source made the active and inactive calls.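 The calls were made as follows: active = mean IC50 for reducing PEG3 promoter reporter signal at or below a set limit, with IC50 above the limit in both counter screens; inactive = the rest, including counter screen hits.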

In experiment [1] the test system is PEG-3. Kind of experiment: inhibition of PEG-3 promoter-driven reporter – cell-based, HeLa, luciferase, CREF/GAPDH counter-screen panel, dose response (AID 624167). The settings on record: HeLa PEG-Prom luciferase reporter, overnight, CREF/GAPDH counter-screens. A general note: Counterscreens check selectivity or assay interference.
Experiment [2] has as its target PEG-3 (UniProt Q6IN02). Described as above. The settings on record: HeLa PEG-Prom luciferase reporter, overnight, CREF/GAPDH counter-screens, mean of runs. A general note: Reporter assays use an easily measured gene product as a stand-in for the process of interest.
Setting [3] is: run 1, dose range 1, individual replicate IC50 per panel.
Setting [4] is: run 2, dose range 1, individual replicate IC50 per panel.

Chain of PEG-3 (UniProt Q6IN02) (Q6IN02 whole entry, looked up): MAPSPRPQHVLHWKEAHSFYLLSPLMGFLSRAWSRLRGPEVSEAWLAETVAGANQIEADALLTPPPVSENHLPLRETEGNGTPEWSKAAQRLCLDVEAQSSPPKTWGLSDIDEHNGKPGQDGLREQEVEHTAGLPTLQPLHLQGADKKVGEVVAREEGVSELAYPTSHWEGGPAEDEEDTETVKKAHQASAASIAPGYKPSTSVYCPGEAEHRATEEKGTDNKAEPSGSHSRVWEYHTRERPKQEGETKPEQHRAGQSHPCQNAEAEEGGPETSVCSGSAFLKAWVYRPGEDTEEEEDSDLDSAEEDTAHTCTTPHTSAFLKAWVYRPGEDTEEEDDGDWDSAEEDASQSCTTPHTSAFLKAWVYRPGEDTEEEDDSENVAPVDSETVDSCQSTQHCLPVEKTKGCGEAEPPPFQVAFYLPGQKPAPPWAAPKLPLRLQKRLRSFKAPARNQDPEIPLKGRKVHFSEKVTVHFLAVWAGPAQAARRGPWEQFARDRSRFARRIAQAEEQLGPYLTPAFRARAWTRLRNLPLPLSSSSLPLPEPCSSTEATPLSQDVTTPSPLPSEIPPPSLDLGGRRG

A word on the IC50: it is the concentration that gives 50% inhibition. Take `CN(C)CCNc1ncnc2c1ncn2[C@H]1CN(Cc2ccc(-c3ccccc3)cc2)C[C@@H](CO)O1`: the values for the IC50 with PEG-3 [1] (setting [3]) and in the experiment with PEG-3 [1] (setting [4]) were 30.7 µM and 17.4 µM, respectively. Further, at PEG-3 [2], the IC50 result was “inactive”.
On the same counts, the results for `COc1ccc(CCNC(=O)c2cc3c(=O)n4ccccc4nc3n(C3CCCCC3)c2=N)cc1` are above 100 µM, above 100 µM and > 100 µM (inactive).
In the same order, the values of `CC(C)n1nc(C(=O)Oc2cc(Cl)ccc2Cl)c2ccccc2c1=O` are 65.8 µM, above 100 µM and “inactive”.
On the same counts, the results for `CCN1C(=O)C(=Cc2cccc(OC)c2Oc2ccc([N+](=O)[O-])cc2[N+](=O)[O-])SC1=S` are above 100 µM, above 100 µM and > 100 µM (inactive).
Regarding `CCOc1cc(/C=N/Nc2nc(-c3cccc(S(=O)(=O)N4CCCC4)c3)cs2)ccc1O`, the IC50 in the experiment with PEG-3 [1] (setting [3]) amounted to 22.3 µM; in the experiment with PEG-3 [1] (setting [4]), 60.1 µM. The IC50 entry at PEG-3 [2] is “inactive”.
In the same order, the values of `CCOC(=O)c1ccc(NC(=O)C2CCCN(S(=O)(=O)c3ccc(F)cc3)C2)cc1` (stereo not drawn) are 20.9 µM, 43.1 µM and “inactive”.
In the same order, the values of `c1cncc(-c2nc(NCC3COc4ccccc4O3)c3ccccc3n2)c1` (stereo not drawn) are 20.1 µM, 38.6 µM and “inactive”.
On the same counts, the results for `COc1ccc(CC(N)c2csc(NC(=O)Nc3cc(OC)ccc3OC)n2)cc1` (stereo not drawn) are 16.5 µM, 15.6 µM and 16 µM.
Consider `COC(=O)C1=C(C)N(Cc2ccccc2)C(=NCc2cccc(Cl)c2)N[C@H]1c1ccccc1`, for which the IC50 in the experiment with PEG-3 [1] (setting [3]) was 19.1 µM; with PEG-3 [1] (setting [4]), 12.7 µM; on PEG-3 [2], 15.9 µM.
As for `CCc1nc(Sc2nnnn2-c2ccccc2)c2c3c(sc2n1)CCCC3`, the figures for the 50% inhibitory concentration (IC50) with PEG-3 [1] (setting [3]) and with PEG-3 [1] (setting [4]) were 24.7 µM and 16.3 µM, respectively. Besides, at PEG-3 [2], the IC50 entry was “inactive”.
On the same counts, the results for `Cc1nn(-c2ccccc2Cl)c(Cl)c1/C=N/Nc1nc2ccccc2s1` are below 0.2 µM, below 0.2 µM and below 0.2 µM.
As to `CCN1CCc2c(sc(NC(=O)c3ccc(S(=O)(=O)N4CCCCCC4)cc3)c2C(=O)NC)C1`, the half-inhibitory concentration (IC50) in the experiment on PEG-3 [1] (setting [3]) came to 21.2 µM; in the experiment with PEG-3 [1] (setting [4]) it was 24.5 µM. The IC50 result on PEG-3 [2] was “inactive”.
Turning to `O=C1CCC2S/C(=C/Nc3ccc(C(F)(F)F)cc3)C(=O)N12` (stereo not drawn), the IC50 in the experiment with PEG-3 [1] (setting [3]) came out at 6.39 µM; with PEG-3 [1] (setting [4]), 47.7 µM. Besides, on PEG-3 [2], the IC50 result was “inactive”.
In the same order, the values of `CCOc1cc(CNCCO)cc(Br)c1OCc1ccccc1Cl` are 41.2 µM, 73.4 µM and “inactive”.
For the molecule `COc1cc(NC(=O)c2cccc(C)c2)ccc1NC(=O)c1cc2ccccc2o1`, the half-inhibitory concentration (IC50) in the experiment on PEG-3 [1] (setting [3]) was 12.9 µM; in the experiment with PEG-3 [1] (setting [4]), 25.6 µM; on PEG-3 [2], 19.3 µM.
As for `COc1ccc2sc3cccc(NCCN(C)C)c3c(=O)c2c1`, the IC50 in the experiment with PEG-3 [1] (setting [3]) was 21.6 µM; with PEG-3 [1] (setting [4]), above 100 µM. Besides, the IC50 result on PEG-3 [2] is “inactive”.
In the same order, the values of `CCN1CCN(C(c2ccc(C(F)(F)F)cc2)c2ccc3cccnc3c2O)CC1` (stereo not drawn) are 21.7 µM, 16.5 µM and 19.1 µM.
For `CC1(C)CC(NCCN2CCN(C3=CC(=C(C#N)C#N)CC(C)(C)C3)CC2)=CC(=C(C#N)C#N)C1`, the IC50 was above 100 µM with PEG-3 [1] (setting [3]) and 8.4 µM in the experiment on PEG-3 [1] (setting [4]). On PEG-3 [2], the IC50 result is “inactive”.
On the same counts, the results for `COc1ccc(-c2cc(C(F)F)n3ncc(C(=O)n4ccnc4C)c3n2)cc1` are 18.3 µM, 6.84 µM and 12.5 µM.
On the same counts, the results for `COc1ccc(-c2sc3ccccc3c2-c2ccc(OCCN3CCCCC3)cc2)cc1` are 20.9 µM, 20.2 µM and “inactive”.
For the molecule `CNCC[C@H](Oc1cccc2ccccc12)c1cccs1`, the IC50 in the experiment with PEG-3 [1] (setting [3]) was 18.8 µM; in the experiment on PEG-3 [1] (setting [4]), 16.6 µM; on PEG-3 [2], 17.7 µM.
In the same order, the values of `COc1ccc(-c2ccc3[nH]c4c(c3c2)CCN2C[C@@H]([C@H](C)O)[C@@H](N(C)C(=O)Nc3cc(Cl)cc(Cl)c3)C[C@@H]42)cc1` are 43.8 µM, 30.8 µM and “inactive”.
In the same order, the values of `O=C(CN1CCN(Cc2ccccc2Cl)CC1)N=Nc1c(O)[nH]c2ccccc12` are 5.23 µM, above 100 µM and “inactive”.
In the same order, the values of `Cc1nc(-c2ccc(F)cc2)c(CC(=O)N(C)CC(=O)Nc2ccc(Cl)c(C(F)(F)F)c2)s1` are 26 µM, 33.8 µM and “inactive”.
Take `Cn1nnnc1Sc1ncnc2scc(-c3ccsc3)c12`: the 50% inhibitory concentration (IC50) was 14.7 µM with PEG-3 [1] (setting [3]), 8.36 µM in the experiment with PEG-3 [1] (setting [4]) and 11.5 µM on PEG-3 [2].
On the same counts, the results for `Cn1cccc1/C=C1/C(=O)NC(=S)N(Cc2ccc(F)cc2)C1=O` are 31.9 µM, 38.1 µM and “inactive”.
On the same counts, the results for `CC1CCCCN1CCNC(=O)c1ccc2c(=O)n(Cc3ccc(Cl)cc3)c(=S)[nH]c2c1` (stereo not drawn) are 19.6 µM, 25.3 µM and “inactive”.
As for `Cc1cc(Sc2ncnc(N)c2[N+](=O)[O-])ncn1`, the IC50 in the experiment with PEG-3 [1] (setting [3]) is 18.7 µM; in the experiment with PEG-3 [1] (setting [4]), 11.7 µM; on PEG-3 [2] it was 15.2 µM.
Turning to `CCCN(CC(=O)Nc1cc(Cl)cc(Cl)c1)CC(=O)Nc1ccc(F)c(F)c1F`, the IC50 in the experiment with PEG-3 [1] (setting [3]) came to 14.6 µM; in the experiment on PEG-3 [1] (setting [4]), 43.7 µM. In addition, the IC50 entry on PEG-3 [2] is “inactive”.
On the same counts, the results for `CCOC(=O)c1c(NC(=O)COc2ccccc2F)sc2c1CC(C)(C)NC2(C)C` are 17.6 µM, 35 µM and “inactive”.
In the same order, the values of `CN(C)CCNc1ncnc2c1sc1nc(N3CCCC3)c3c(c12)CC(C)(C)OC3` are 32.7 µM, 13.1 µM and “inactive”.
With `Cc1cccc2c1-c1sc(C(=O)NCCCN3CCCC(C)C3)cc1CO2` (stereo not drawn), the IC50 is 17.5 µM in the experiment on PEG-3 [1] (setting [3]), 13.7 µM in the experiment on PEG-3 [1] (setting [4]) and 15.6 µM at PEG-3 [2].
In the same order, the values of `CC(C)(C)c1ccc(CN2N=Nc3ccccc3S2(=O)=O)cc1` are 30.6 µM, 40.1 µM and “inactive”.
On the same counts, the results for `Cc1ccc(S(=O)(=O)N2CCCCC2)cc1C(=O)N(C)CC(=O)Nc1ccc(Cl)c(C(F)(F)F)c1` are 45.1 µM, 42.7 µM and “inactive”.
For the molecule `O=C(Nc1ccccc1)c1nc[nH]c1C(=O)NCCCNC(=O)c1[nH]cnc1C(=O)Nc1ccccc1`, the IC50 in the experiment with PEG-3 [1] (setting [3]) is 17.2 µM; with PEG-3 [1] (setting [4]), above 100 µM. The IC50 entry at PEG-3 [2] was “inactive”.
In the same order, the values of `O=C(NC1CCCCC1)C(c1cccnc1)N(C(=O)CCl)c1cccc(Cl)c1` (stereo not drawn) are 17.6 µM, 13.4 µM and 15.5 µM.
As for `CN(C)CC1CCC/C(=C\c2ccc(OC(=O)/C=C/c3ccccc3)cc2)C1=O` (stereo not drawn), the half-inhibitory concentration (IC50) with PEG-3 [1] (setting [3]) was 21.8 µM; with PEG-3 [1] (setting [4]), 7.3 µM; at PEG-3 [2], 14.6 µM.
On the same counts, the results for `COCC(C)n1c(C)cc(C(=O)COC(=O)c2cccn2C)c1C` (stereo not drawn) are 32.8 µM, above 100 µM and “inactive”.
On the same counts, the results for `CC[n+]1c(-c2ccccc2)c2cc(N)ccc2c2ccc(N)cc21` are 7.7 µM, 23.6 µM and 15.7 µM.
In the same order, the values of `CSc1ccc(CN(C)C(=O)C(Cc2ccccc2)NC(=O)c2ccccc2)cc1` (stereo not drawn) are 21.3 µM, 24.4 µM and “inactive”.
With `Cc1cc(C)c2sc(N(CCCN(C)C)C(=O)c3ccc(S(=O)(=O)N(C)Cc4ccccc4)cc3)nc2c1`, the IC50 was 20.3 µM in the experiment on PEG-3 [1] (setting [3]), 17.4 µM with PEG-3 [1] (setting [4]) and 18.9 µM on PEG-3 [2].
On the same counts, the results for `COc1cccc(N2CCN(CC(=O)Nc3ccccc3C(=O)NCc3ccccc3)CC2)c1` are 16.6 µM, 35 µM and “inactive”.
On the same counts, the results for `Cc1cc(C)nc(NC(=O)c2c(F)c(F)c(F)c(C(=O)Nc3cc(C)cc(C)n3)c2F)c1` are 20.1 µM, 19.5 µM and 19.8 µM.
In the same order, the values of `CC(=O)OCCNc1cc(SCc2ccco2)c2nonc2c1[N+](=O)[O-]` are 26.8 µM, 20.4 µM and “inactive”.
Consider `COc1cc(/C=C/[N+](=O)[O-])ccc1OC(=O)/C=C/c1ccc(F)cc1`, for which the figures for the half-inhibitory concentration (IC50) in the experiment with PEG-3 [1] (setting [3]), in the experiment on PEG-3 [1] (setting [4]) and at PEG-3 [2] were above 100 µM, above 100 µM and > 100 µM (inactive), respectively.
On to `CN1OC[C@@H]2CN[C@H](c3ccc(-c4cc5ccccc5o4)cc3)C[C@@H]21`, for which the IC50 with PEG-3 [1] (setting [3]) is 24.9 µM; in the experiment with PEG-3 [1] (setting [4]) it was 12.6 µM; on PEG-3 [2], 18.8 µM.
In the same order, the values of `O=C(Nc1ccc(-c2nc3ccccc3o2)cc1)c1ccc(N2CCOCC2)c([N+](=O)[O-])c1` are above 100 µM, above 100 µM and > 100 µM (inactive).
In the same order, the values of `CN(Cc1ccccc1F)C(=O)C(Cc1ccccc1)NC(=O)c1ccccc1` (stereo not drawn) are 32.3 µM, 95.6 µM and “inactive”.
On the same counts, the results for `Fc1ccc([C@@H]2CCNC[C@H]2COc2ccc3c(c2)OCO3)cc1` are 20 µM, 19 µM and 19.5 µM.
Consider `O=c1cc2oc3cc(O)c(O)cc3c(-c3ccccc3[N+](=O)[O-])c-2cc1O`, for which the values for the half-inhibitory concentration (IC50) in the experiment with PEG-3 [1] (setting [3]), with PEG-3 [1] (setting [4]) and on PEG-3 [2] were 19 µM, 19.1 µM and 19 µM, respectively.
Turning to `COCCn1c(C)cc(C(=O)CSc2nnc3ccccn23)c1C`, the IC50 is 8.34 µM with PEG-3 [1] (setting [3]), 21.8 µM in the experiment on PEG-3 [1] (setting [4]) and 15.1 µM at PEG-3 [2].
